Experimental data taken from the kinase profiling compilation of Christmann-Franck et al. (2016).

Tests used:
Experiment in all cases: radiometric filter-binding kinase assay
[1] = target: NEK2 (human) (UniProt P51955)
[2] = target: PHKG1 (human) (UniProt Q16816)
[3] = target: IKBKB (human) (UniProt O14920)
[4] = target: CAMKK2 (human) (UniProt Q96RR4)
[5] = target: MAPK15 (human) (UniProt Q8TD08)
[6] = target: CHEK1 (human) (UniProt O14757)
[7] = target: MAPK1 (human) (UniProt P28482)
[8] = target: PKN2 (human) (UniProt Q16513)
[9] = target: MAP2K1 (human) (UniProt Q02750)
[10] = tested on: AKT2 (human), P31751 [S474D]
[11] = target: AURKB (human) (UniProt Q96GD4)
[12] = target: STK3 (human) (UniProt Q13188)
[13] = target: RPS6KA1 KD1 KD2 (human) (UniProt Q15418)
[14] = target: MKNK2 (human) (UniProt Q9HBH9)
[15] = target: CHEK2 (human) (UniProt O96017)
[16] = target: MKNK1 (human) (UniProt Q9BUB5)
[17] = target: MAPK3 (human) (UniProt P27361)
[18] = target: YES1 (human) (UniProt P07947)
[19] = target: MAPK9 (human) (UniProt P45984)
[20] = tested on: PRKAA1 or PRKAA2 (rat); details: accession and sequence are those of the human protein
[21] = target: PRKACA (human) (UniProt P17612)
[22] = target: PRKCA (human) (UniProt P17252)
[23] = target: PIM2 (human) (UniProt Q9P1W9)
[24] = target: SRC (human) (UniProt P12931)
[25] = target: IGF1R (human) (UniProt P08069)
[26] = target: MAPKAPK2 (human) (UniProt P49137)

Sequence of MAPK9 (human) (P45984 whole entry, looked up): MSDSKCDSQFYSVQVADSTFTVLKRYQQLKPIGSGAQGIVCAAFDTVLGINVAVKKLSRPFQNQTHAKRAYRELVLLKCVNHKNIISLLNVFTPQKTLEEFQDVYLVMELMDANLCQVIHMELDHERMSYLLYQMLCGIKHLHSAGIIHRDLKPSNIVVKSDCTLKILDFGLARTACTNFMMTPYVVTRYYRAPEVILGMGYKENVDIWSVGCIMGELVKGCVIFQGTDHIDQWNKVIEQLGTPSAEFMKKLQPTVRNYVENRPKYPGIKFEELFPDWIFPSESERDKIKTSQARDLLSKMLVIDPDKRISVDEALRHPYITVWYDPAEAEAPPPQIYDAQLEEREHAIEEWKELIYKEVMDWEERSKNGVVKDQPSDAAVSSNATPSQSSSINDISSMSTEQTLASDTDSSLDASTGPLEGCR
Sequence of CHEK1 (human) (O14757 whole entry, looked up): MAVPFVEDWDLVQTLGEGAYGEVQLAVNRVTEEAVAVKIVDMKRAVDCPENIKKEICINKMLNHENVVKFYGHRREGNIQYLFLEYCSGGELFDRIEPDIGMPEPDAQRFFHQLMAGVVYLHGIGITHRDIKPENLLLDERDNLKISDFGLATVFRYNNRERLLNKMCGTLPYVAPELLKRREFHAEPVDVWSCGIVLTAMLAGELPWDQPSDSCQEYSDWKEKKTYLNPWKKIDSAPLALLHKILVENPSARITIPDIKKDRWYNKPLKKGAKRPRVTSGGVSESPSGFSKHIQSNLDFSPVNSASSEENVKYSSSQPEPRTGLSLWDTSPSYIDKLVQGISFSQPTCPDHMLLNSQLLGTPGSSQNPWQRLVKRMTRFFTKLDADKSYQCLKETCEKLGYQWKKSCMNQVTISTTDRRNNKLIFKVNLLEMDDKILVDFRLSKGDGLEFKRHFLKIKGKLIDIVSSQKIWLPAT
Sequence of YES1 (human) (P07947 whole entry, looked up): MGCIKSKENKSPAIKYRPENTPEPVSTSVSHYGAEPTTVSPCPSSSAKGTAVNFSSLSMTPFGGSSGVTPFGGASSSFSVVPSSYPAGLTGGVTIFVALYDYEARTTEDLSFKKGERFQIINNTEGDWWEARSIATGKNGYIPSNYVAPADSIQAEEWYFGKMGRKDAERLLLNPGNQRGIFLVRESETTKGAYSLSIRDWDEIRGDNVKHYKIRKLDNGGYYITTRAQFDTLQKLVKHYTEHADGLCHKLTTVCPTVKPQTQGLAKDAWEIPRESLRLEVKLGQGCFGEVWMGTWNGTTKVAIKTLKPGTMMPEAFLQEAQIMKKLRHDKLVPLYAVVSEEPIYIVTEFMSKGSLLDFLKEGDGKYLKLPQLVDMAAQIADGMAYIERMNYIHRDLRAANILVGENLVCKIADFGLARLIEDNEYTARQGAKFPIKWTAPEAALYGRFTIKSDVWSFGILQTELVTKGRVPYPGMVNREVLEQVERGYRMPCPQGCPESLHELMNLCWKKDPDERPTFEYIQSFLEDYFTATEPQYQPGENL
Sequence of IGF1R (human) (P08069 whole entry, looked up): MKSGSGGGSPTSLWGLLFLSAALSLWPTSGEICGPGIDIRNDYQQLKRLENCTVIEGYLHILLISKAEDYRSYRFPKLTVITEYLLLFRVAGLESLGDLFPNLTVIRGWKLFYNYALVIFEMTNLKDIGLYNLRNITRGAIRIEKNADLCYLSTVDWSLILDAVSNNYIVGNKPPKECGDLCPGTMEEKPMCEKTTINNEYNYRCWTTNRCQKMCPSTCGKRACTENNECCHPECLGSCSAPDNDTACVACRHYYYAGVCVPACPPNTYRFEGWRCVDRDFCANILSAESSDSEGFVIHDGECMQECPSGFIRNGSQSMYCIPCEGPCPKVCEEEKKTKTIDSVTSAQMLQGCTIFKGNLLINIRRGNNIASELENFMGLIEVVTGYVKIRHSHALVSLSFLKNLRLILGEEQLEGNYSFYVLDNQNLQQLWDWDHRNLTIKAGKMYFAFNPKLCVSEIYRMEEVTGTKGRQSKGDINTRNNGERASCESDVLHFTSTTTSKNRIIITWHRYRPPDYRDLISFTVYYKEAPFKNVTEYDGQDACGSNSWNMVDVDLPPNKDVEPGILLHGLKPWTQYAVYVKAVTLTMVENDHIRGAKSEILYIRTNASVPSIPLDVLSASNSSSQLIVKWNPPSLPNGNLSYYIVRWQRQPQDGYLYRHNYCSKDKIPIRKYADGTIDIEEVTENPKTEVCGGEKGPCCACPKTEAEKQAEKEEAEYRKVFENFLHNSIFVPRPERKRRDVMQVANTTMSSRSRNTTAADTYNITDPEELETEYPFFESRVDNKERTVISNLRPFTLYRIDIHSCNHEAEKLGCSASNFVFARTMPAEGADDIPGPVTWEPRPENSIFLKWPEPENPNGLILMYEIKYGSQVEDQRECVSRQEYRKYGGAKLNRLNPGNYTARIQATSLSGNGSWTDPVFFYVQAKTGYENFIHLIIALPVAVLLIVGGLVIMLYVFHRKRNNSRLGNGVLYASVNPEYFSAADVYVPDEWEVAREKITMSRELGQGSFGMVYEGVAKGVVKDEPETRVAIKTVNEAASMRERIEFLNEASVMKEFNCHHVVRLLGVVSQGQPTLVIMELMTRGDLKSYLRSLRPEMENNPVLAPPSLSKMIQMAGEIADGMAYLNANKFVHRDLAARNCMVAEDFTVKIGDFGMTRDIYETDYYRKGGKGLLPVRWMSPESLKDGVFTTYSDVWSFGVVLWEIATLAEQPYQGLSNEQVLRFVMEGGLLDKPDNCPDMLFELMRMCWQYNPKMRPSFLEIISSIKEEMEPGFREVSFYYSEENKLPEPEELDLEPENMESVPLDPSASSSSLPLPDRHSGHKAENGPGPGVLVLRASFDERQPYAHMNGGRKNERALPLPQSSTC
Sequence of MAPK15 (human) (Q8TD08 whole entry, looked up): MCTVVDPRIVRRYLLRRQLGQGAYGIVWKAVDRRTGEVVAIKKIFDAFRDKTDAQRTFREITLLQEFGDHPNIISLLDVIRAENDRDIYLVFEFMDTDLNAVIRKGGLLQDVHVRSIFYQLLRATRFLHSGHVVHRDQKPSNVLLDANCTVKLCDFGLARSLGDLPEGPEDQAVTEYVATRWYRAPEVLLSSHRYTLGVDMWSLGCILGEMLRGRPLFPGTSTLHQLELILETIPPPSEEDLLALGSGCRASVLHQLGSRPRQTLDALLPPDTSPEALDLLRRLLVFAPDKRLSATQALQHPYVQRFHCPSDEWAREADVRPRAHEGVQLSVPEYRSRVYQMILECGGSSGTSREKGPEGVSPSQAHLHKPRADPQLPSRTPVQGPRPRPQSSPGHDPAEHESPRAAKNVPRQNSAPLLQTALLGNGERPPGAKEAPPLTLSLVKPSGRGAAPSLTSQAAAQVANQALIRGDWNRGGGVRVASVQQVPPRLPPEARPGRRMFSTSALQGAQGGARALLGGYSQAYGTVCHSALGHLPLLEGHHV
Sequence of MKNK1 (human) (Q9BUB5 whole entry, looked up): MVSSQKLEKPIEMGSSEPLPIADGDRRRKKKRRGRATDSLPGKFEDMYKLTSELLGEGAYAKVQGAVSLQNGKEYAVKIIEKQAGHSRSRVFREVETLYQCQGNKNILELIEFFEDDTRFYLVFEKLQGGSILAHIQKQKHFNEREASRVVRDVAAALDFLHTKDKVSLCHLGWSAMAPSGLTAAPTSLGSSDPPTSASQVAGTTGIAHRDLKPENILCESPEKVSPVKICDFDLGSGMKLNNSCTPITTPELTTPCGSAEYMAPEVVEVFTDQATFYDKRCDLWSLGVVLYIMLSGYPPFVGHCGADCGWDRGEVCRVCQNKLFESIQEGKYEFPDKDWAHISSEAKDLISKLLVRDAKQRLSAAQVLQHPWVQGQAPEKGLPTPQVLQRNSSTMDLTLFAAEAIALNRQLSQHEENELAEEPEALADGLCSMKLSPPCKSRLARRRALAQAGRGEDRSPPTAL
Sequence of AKT2 (human), P31751 [S474D] (P31751 whole entry S474D, looked up): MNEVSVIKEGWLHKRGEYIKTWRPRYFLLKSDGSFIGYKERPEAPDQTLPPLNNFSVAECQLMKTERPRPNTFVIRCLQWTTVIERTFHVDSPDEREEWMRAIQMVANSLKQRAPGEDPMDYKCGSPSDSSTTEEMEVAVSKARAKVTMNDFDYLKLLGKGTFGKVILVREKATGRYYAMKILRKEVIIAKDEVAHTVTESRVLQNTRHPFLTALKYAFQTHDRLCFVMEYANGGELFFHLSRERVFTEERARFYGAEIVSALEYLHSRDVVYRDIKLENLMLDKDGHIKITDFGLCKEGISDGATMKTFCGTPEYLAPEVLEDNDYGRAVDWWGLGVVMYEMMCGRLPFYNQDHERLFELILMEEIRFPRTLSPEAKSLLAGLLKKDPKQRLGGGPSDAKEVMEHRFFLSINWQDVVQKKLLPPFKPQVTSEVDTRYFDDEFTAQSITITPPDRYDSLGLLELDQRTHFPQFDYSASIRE

CCc1cncnc1N1CCN(Cc2nc3cc(C(F)(F)F)ccc3[nH]2)CC1
residual activity ([1]; compound 0.1 µM): 95%
residual activity ([1]; compound 1.0 µM): 94%
residual activity ([1]; compound 10.0 µM): 91%
residual activity ([2]; compound 0.1 µM): 100%
residual activity ([2]; compound 1.0 µM): 96%
residual activity ([2]; compound 10.0 µM): 104%
residual activity ([3]; compound 0.1 µM): 104%
residual activity ([3]; compound 1.0 µM): 119%
residual activity ([3]; compound 10.0 µM): 102%
residual activity ([4]; compound 0.1 µM): 99%
residual activity ([4]; compound 1.0 µM): 98%
residual activity ([4]; compound 10.0 µM): 80%
residual activity ([5]; compound 0.1 µM): 85%
residual activity ([5]; compound 1.0 µM): 83%
residual activity ([5]; compound 10.0 µM): 71%
residual activity ([6]; compound 0.1 µM): 90%
residual activity ([6]; compound 1.0 µM): 83%
residual activity ([6]; compound 10.0 µM): 83%
residual activity ([7]; compound 0.1 µM): 93%
residual activity ([7]; compound 1.0 µM): 85%
residual activity ([7]; compound 10.0 µM): 86%
residual activity ([8]; compound 0.1 µM): 95%
residual activity ([8]; compound 1.0 µM): 86%
residual activity ([8]; compound 10.0 µM): 84%
residual activity ([9]; compound 0.1 µM): 117%
residual activity ([9]; compound 1.0 µM): 104%
residual activity ([9]; compound 10.0 µM): 96%
residual activity ([10]; compound 0.1 µM): 74%
residual activity ([10]; compound 1.0 µM): 73%
residual activity ([10]; compound 10.0 µM): 60%
residual activity ([11]; compound 0.1 µM): 89%
residual activity ([11]; compound 1.0 µM): 87%
residual activity ([11]; compound 10.0 µM): 49%
residual activity ([12]; compound 0.1 µM): 95%
residual activity ([12]; compound 1.0 µM): 85%
residual activity ([12]; compound 10.0 µM): 77%
residual activity ([13]; compound 0.1 µM): 46%
residual activity ([13]; compound 1.0 µM): 33%
residual activity ([13]; compound 10.0 µM): 0%
residual activity ([14]; compound 0.1 µM): 92%
residual activity ([14]; compound 1.0 µM): 93%
residual activity ([14]; compound 10.0 µM): 79%
residual activity ([15]; compound 0.1 µM): 101%
residual activity ([15]; compound 1.0 µM): 73%
residual activity ([15]; compound 10.0 µM): 72%
residual activity ([16]; compound 0.1 µM): 101%
residual activity ([16]; compound 1.0 µM): 91%
residual activity ([16]; compound 10.0 µM): 79%
residual activity ([17]; compound 0.1 µM): 93%
residual activity ([17]; compound 1.0 µM): 85%
residual activity ([18]; compound 0.1 µM): 98%
residual activity ([18]; compound 1.0 µM): 84%
residual activity ([18]; compound 10.0 µM): 76%
residual activity ([19]; compound 0.1 µM): 92%
residual activity ([19]; compound 1.0 µM): 93%
residual activity ([19]; compound 10.0 µM): 98%
residual activity ([20]; compound 0.1 µM): 100%
residual activity ([20]; compound 1.0 µM): 88%
residual activity ([20]; compound 10.0 µM): 46%
residual activity ([21]; compound 0.1 µM): 84%
residual activity ([21]; compound 1.0 µM): 83%
residual activity ([21]; compound 10.0 µM): 34%
residual activity ([22]; compound 0.1 µM): 119%
residual activity ([22]; compound 1.0 µM): 106%
residual activity ([22]; compound 10.0 µM): 62%
residual activity ([23]; compound 0.1 µM): 90%
residual activity ([23]; compound 1.0 µM): 90%
residual activity ([23]; compound 10.0 µM): 100%
residual activity ([24]; compound 0.1 µM): 103%
residual activity ([24]; compound 10.0 µM): 92%
residual activity ([25]; compound 0.1 µM): 72%
residual activity ([25]; compound 1.0 µM): 95%
residual activity ([25]; compound 10.0 µM): 82%
residual activity ([26]; compound 1.0 µM): 105%
residual activity ([26]; compound 10.0 µM): 78%
